{"source": "ChEMBL document CHEMBL3272250", "about": "“Quinoline derivatives as antiallergy agents. 2. Fused-ring quinaldic acids” (1977)", "data": [{"system": "Rattus norvegicus", "experiment": "Antiallergic activity against anti-egg albumin homocytotropic antibody injected Sprague-Dawley rat assessed as inhibition of passive cutaneous anaphylaxis reaction administered iv at the time of egg albumin antigen challenge or ip 30 mins prior to egg albumin antigen challenge", "type": "functional", "conditions": "read-out: ID50 (the source's name)", "units": {"ED50": "mg/kg"}, "values": [{"smiles": "O=C(O)c1ccc2ccccc2n1", "note": "[QUINALDIC ACID]", "ED50": 50}, {"smiles": "Cc1c(C(=O)[O-])[nH]c2c(C)c3[nH]c(C(=O)O)c(C)c(=O)c3cc2c1=O.[Na+]", "ED50": 5}, {"smiles": "O=C(O)c1cc(=O)c2c(C(F)(F)F)c3c(=O)cc(C(=O)O)[nH]c3c(Cl)c2[nH]1", "ED50": 5}, {"smiles": "Cc1c(C(=O)O)[nH]c2ccc3[nH]c(C(=O)O)c(C)c(=O)c3c2c1=O", "ED50": 10}, {"smiles": "O=C(O)c1cc(=O)c2cc3c(=O)cc(C(=O)O)[nH]c3c(Cl)c2[nH]1", "ED50": 0.05}, {"smiles": "COc1c2[nH]c(C(=O)O)cc(=O)c2cc2c(=O)cc(C(=O)O)[nH]c12", "ED50": 0.1}, {"smiles": "O=C(O)c1cc(=O)c2cc3c(=O)cc(C(=O)O)[nH]c3c(F)c2[nH]1", "ED50": 0.5}, {"smiles": "O=C(O)c1cc(=O)c2c([nH]1)c1c(=O)cc(C(=O)O)[nH]c1c1c(=O)cc(C(=O)O)[nH]c21", "ED50": 0.5}, {"smiles": "O=C(O)c1cc(=O)c2c(ccc3c(=O)cc(C(=O)O)[nH]c32)[nH]1", "ED50": 1}, {"smiles": "N#Cc1c2c(=O)cc(C(=O)O)[nH]c2c(Cl)c2[nH]c(C(=O)O)cc(=O)c12", "ED50": 0.05}, {"smiles": "O=C(O)c1cc(=O)c2cc(Cl)c3c(ccc4c(=O)cc(C(=O)O)[nH]c43)c2[nH]1", "ED50": 0.05}, {"smiles": "O=C(O)c1cc(=O)c2ccc3c(ccc4c(=O)cc(C(=O)O)[nH]c43)c2[nH]1", "ED50": 0.005}, {"smiles": "Cc1c2[nH]c(C(=O)[O-])cc(=O)c2cc2c(=O)cc(C(=O)[O-])[nH]c12.[Na+].[Na+]", "ED50": 0.25}, {"smiles": "O=C(O)c1cc(=O)c2c(cc(C(=O)O)c3c(=O)cc(C(=O)O)[nH]c32)[nH]1", "ED50": 10}, {"smiles": "O=C([O-])c1cc(=O)c2c(OCC(O)COc3cccc4oc(C(=O)[O-])cc(=O)c34)cccc2o1.[Na+].[Na+]", "note": "[CROMOLYN SODIUM]", "ED50": 2.5}, {"smiles": "N#Cc1c2[nH]c(C(=O)O)cc(=O)c2cc2c(=O)cc(C(=O)O)[nH]c12", "ED50": 0.05}, {"smiles": "O=C(O)c1cc(=O)c2c(ccc3[nH]c(C(=O)O)cc(=O)c32)[nH]1", "ED50": 2.5}, {"smiles": "Cc1c2c(=O)cc(C(=O)[O-])[nH]c2c(Cl)c2[nH]c(C(=O)[O-])cc(=O)c12.[Na+].[Na+]", "ED50": 0.01}, {"smiles": "CCCCc1cc2c(=O)cc(C(=O)O)[nH]c2c2c(=O)cc(C(=O)O)[nH]c12", "note": "[BUFROLIN]", "ED50": 0.005}, {"smiles": "O=C([O-])c1cc(=O)c2cc3c(=O)cc(C(=O)[O-])[nH]c3c(C(=O)O)c2[nH]1.[Na+].[Na+]", "ED50": 0.1}, {"smiles": "CCCCCc1cc2c(=O)cc(C(=O)O)[nH]c2c2c(=O)cc(C(=O)O)[nH]c12", "ED50": 0.05}]}, {"species": "Rattus norvegicus", "experiment": "Ratio of cromolyn sodium ID50 to compound ID50 for inhibition of passive cutaneous anaphylaxis reaction in Sprague-Dawley rat", "type": "functional", "conditions": "not given", "values": [{"smiles": "O=C(O)c1cc(=O)c2ccc3c(ccc4c(=O)cc(C(=O)O)[nH]c43)c2[nH]1", "Ratio": 500}, {"smiles": "Cc1c2c(=O)cc(C(=O)[O-])[nH]c2c(Cl)c2[nH]c(C(=O)[O-])cc(=O)c12.[Na+].[Na+]", "Ratio": ">250"}, {"smiles": "CCCCc1cc2c(=O)cc(C(=O)O)[nH]c2c2c(=O)cc(C(=O)O)[nH]c12", "note": "[BUFROLIN]", "Ratio": 500}]}]}
